Reference: patent publication US10697970B2, “S100A9 levels for predicting lenalidomide and erythropoietin responsiveness” (H. LEE MOFFITT CANCER CENTER AND RESEARCH INSTITUTE, INC., priority 2015, dated 2020)

Assays:
[1] = system: HepG2 cells; experiment: Epo elaboration by HepG2 cells (ELISA); format: cell-based, human
Procedure: HepG2 cells, acquired from American Type Culture Collection (ATCC, Manassas, Va.), were grown in EMEM supplemented with 10% FBS and 1% penicillin/streptomycin solution. Cells were maintained at 37° C. under 5% CO2.
(§1) Quantitation of human S100A9/MRP14 in patient serum and supernatant of the HepG2 cell line was performed using CircuLex S100A9/MRP14 ELISA Kit (MBL, Nagano, Japan). Quantitative measurement of human TNFα and IL-1β from serum patients and supernatant of HepG2 cell line were performed using Human IL-1β ELISA Kit and Human TNFα ELISA Kit (Life Technologies, Carlsbad, Calif., USA). Quantitation of human Epo in patient serum and HepG2 cell line supernatant was performed using Human Erythropoietin ELISA kit (Stemcell Technologies, Vancouver, BC, Canada). All samples were performed in duplicate.

[2] = system: HepG2 cells; experiment: IL10 mRNA qPCR in HepG2 cells; format: cell-based, human
Procedure: RNA was isolated using the RNAeasy Mini Kit (Qiagen, Valencia, Calif., USA) followed by iScript cDNA synthesis (Bio-Rad, Hercules, Calif., USA) and amplification using iQ SYBR Green Supermix (Bio-Rad, Herculed, Calif., USA). The relative level of gene expression for each experimental sample was calculated by the ΔΔCt method. Untreated cells were the experimental control and the housekeeping gene GAPDH was the endogenous control.

[3] = system: NF-κB; experiment: Cytoplasmic and nuclear NF-κB western blotting in HepG2 cells; format: cell-based, human; conditions: HepG2, 24 h, 1 μM lenalidomide pre-incubation, then S100A9 or TNFα
Procedure: After treatment for 24 h, cells were harvested and lysed in 1×RIPA buffer supplemented with protease and phosphatase inhibitors for classical western blotting. For the nuclear extraction, cells were lysed in ice with buffer A, then pelleted. After removed supernatant (cytoplasmic fraction), pellets were lysed in ice with buffer B and pelleted (nuclear fraction) (Nuclear extraction kit, Abcam, Cambridge, USA). Lysates were pelleted and 50 μg of protein was resolved by SDS-PAGE and transferred to PVDF membranes. The membranes were blocked for 30 min in 5% non-fat dry milk solution in PBST (PBS with 0.1% Tween 20) and incubated with the indicated antibodies. Membranes were developed using ECL according to the manufacturer's protocol (GE Healthcare, Little Chalfont, UK). Densitometry analysis was performed using Image J Software.

[4] = system: PBMC isolated from non-del(5q) MDS patients; experiment: S100A9 production by PBMC from MDS patients (ELISA); format: cell-based, human; conditions: PBMC from MDS patients (n=7), 1 μM lenalidomide, 24 hours
Procedure: as §1
(§2) Serum samples used for ELISA analysis were collected from 4 centers (Taussig Cancer Institute in Cleveland; AOU Careggi, University of Firenze; Saint Louis hospital in Paris; H. Lee Moffitt Cancer Center in Tampa). Peripheral blood mononuclear cells (PBMC) were collected from patients seen at Moffitt Cancer Center All patients were consented on Institutional Review Boards, or equivalent, approved protocols in hematology clinics at each center, and from the Eastern Cooperative Oncology Group (ECOG) E2905 trial (NCT00843882). All routine clinical and biological data were available.

[5] = system: MDS PBMC; experiment: LPS-induced TNFα production by MDS PBMC; format: cell-based, human; conditions: MDS PBMC (n=7), 1 μM lenalidomide 30 minutes prior to LPS (1 μg/ml), 24 h
[6] = system: non-del(5q) MDS patients; experiment: Erythroid response to ESA or lenalidomide treatment by serum TNFα / S100A9 concentration; format: in vivo, human
Excerpt: as §2
Data are expressed as mean±standard error for continuous variables, or percentage of total for non-continuous variables. Spearman's correlation, Mann-Withney and Jonckheere-Terpstra tests were used for analysis of continuous variables. Chi-square test was used for analysis of non-continuous variables. Differences between the results of comparative tests were considered significant if the two-sided p-value was less than 0.05. All statistical analyses were performed using SPSS v.22 software (IBM SPSS Statistics).

[7] = system: MDS patients; conditions: cited from earlier work
[8] = lenalidomide or lenalidomide + Epo

With `Nc1cccc2c1CN(C1CCC(=O)NC1=O)C2=O` (centres unmarked) [lenalidomide, Lenalidomide] the “effect on IL-1β-directed suppression of Epo elaboration” value ([1]; HepG2, 1 μM lenalidomide 30 minutes prior to IL-1β (10 ng/ml)) was “no effect”, the “suppression of Epo production by S100A9 after lenalidomide pre-incubation” value ([1]; HepG2, 1 μM lenalidomide 30 minutes prior to S100A9 (1 μg/ml)) was 65% and the “suppression of Epo elaboration by TNFα after lenalidomide pre-incubation” value ([1]; HepG2, 1 μM lenalidomide 30 minutes prior to TNFα (10 ng/ml)) was 0%. The “IL10 gene message following IL-1β treatment” value ([2]; HepG2, 1 μM lenalidomide pre-incubation) was “no modulatory effect”, the “IL10 mRNA expression compared to S100A9 or TNFα treatment alone” value ([2]; HepG2, 24 h, 1 μM lenalidomide 30 minutes prior to S100A9 (1 μg/ml) or TNFα (10 ng/ml)) was “significantly increased” and the “NF-κB in nuclear fractions” value [3] was “significant reduction”. For the same molecule, the S100A9 elaboration [4] was “significant reduction”, the “TNFα production induced by LPS” value [5] was “significantly reduced” and the “erythroid response rate, high (above the median) serum TNFα” value [6, 8] was 14%. The “erythroid response rate, low (below the median) serum TNFα” value [6, 8] was 64%, the “erythroid response rate, high TNFα and low S100A9” value ([6]; lenalidomide treatment) was 12% and the “erythroid response rate, low TNFα and high S100A9 concentrations” value ([6]; lenalidomide treatment) was 62%. The “response in patients with an interstitial deletion of Chromosome 5q” value ([7]; MDS patients with del 5q) was “high rate of response” and the “patients without 5q deletions who benefit from therapy” value ([7]; MDS patients without 5q deletions) was “Approximately 25%”.
